Test results from paper PMC9572521, “Synthesis, Docking Studies and Pharmacological Evaluation of Serotoninergic Ligands Containing a 5-Norbornene-2-Carboxamide Nucleus” (Molecules, 2022).
Like-named read-outs stand apart in the source and are kept apart here.

Columns and labels:
[1] = target: T1, human 5-HT2C receptor (Homo sapiens, UniProt P28335); test: 5-HT2C competition binding assay ([3H]mesulergine, transfected cell membranes)
T1 sequence (P28335 33-458): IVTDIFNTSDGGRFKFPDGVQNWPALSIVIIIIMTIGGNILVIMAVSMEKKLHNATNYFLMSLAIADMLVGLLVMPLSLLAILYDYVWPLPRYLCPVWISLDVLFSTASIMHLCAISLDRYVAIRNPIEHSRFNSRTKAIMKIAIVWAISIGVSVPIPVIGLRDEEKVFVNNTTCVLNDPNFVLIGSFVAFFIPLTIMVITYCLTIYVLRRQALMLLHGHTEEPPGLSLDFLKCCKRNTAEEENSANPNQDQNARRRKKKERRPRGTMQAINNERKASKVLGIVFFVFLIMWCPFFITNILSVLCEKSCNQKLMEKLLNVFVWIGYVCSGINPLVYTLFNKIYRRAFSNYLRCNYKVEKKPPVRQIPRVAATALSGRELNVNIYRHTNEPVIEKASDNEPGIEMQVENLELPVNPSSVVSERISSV

[2] = target: 5-HT2A receptor (Rattus norvegicus, UniProt P14842); test: 5-HT2A competition binding assay ([3H]ketanserin, frontal cortex homogenates)
[3] = target: T2, D2 receptor (Rattus norvegicus, UniProt P61169); test: Functional D2 receptor [35S]GTPγS assay (antagonist mode vs dopamine; basal for agonism); type: biochemical; conditions: against 40 µM dopamine, rat striatal homogenate;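 also: [35S]GTPγS binding counted by scintillation after 60 min at 30 °C, nonspecific binding defined with 100 µM unlabeled GTPγS, inhibition curves fitted by one-site nonlinear regression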
T2 construct: 15μg/mL of striatal homogenate was incubated in triplicate; from tissue; host or cells: rat striatum homogenate

[4] = target: T3, 5-HT1A receptor (Rattus norvegicus, UniProt P19327); test: Functional 5-HT1A receptor [35S]GTPγS assay (agonist mode); type: biochemical; conditions: for Emax: read-out: 5-HT1A Receptor G-Protein Stimulation Emax (%) ± SEM;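 as to all read-outs here: male Sprague-Dawley rat hippocampal membranes incubated 90 min at 37 °C, bound label counted by scintillation after filtration, non-specific binding defined with 100 µM unlabeled GTPγS, one-site curve fit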
T3 construct: 15 μg/mL of hippocampus homogenate was incubated in triplicate with 0.8 nM; from tissue; host or cells: rat hippocampus homogenate
T3 sequence (P19327 1-422): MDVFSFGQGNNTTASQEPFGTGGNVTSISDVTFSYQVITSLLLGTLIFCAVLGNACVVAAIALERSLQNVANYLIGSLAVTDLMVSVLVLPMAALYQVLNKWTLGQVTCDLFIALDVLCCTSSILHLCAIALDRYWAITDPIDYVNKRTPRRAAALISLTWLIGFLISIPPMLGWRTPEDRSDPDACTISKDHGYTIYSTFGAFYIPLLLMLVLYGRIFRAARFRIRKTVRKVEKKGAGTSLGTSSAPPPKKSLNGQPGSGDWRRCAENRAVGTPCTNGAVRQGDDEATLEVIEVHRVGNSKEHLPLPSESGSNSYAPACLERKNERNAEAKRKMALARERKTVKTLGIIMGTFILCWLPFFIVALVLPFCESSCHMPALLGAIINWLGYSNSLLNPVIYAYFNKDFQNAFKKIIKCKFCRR

[5] = [3H]mesulergine, human 5-HT2C membranes, read-out: 5-HT2C Ki (95% CI)
[6] = read-out: D2 receptor antagonistic activity IC50 (95% CI)
[7] = read-out: D2 receptor antagonistic activity pIC50 (M ± SEM) (converted)
[8] = [35S]GTPγS, rat hippocampus homogenate, read-out: 5-HT1A Receptor G-Protein Stimulation EC50 (95% CI)
[9] = [35S]GTPγS, rat hippocampus homogenate
[10] = [3H]mesulergine, human 5-HT2C membranes, ± SEM, read-out: 5-HT2C pKi (converted)
[11] = [35S]GTPγS, rat hippocampus homogenate, ± SEM
[12] = ± SEM, read-out: 5-HT2A pKi (converted)

T2 sequence (P61169 whole entry): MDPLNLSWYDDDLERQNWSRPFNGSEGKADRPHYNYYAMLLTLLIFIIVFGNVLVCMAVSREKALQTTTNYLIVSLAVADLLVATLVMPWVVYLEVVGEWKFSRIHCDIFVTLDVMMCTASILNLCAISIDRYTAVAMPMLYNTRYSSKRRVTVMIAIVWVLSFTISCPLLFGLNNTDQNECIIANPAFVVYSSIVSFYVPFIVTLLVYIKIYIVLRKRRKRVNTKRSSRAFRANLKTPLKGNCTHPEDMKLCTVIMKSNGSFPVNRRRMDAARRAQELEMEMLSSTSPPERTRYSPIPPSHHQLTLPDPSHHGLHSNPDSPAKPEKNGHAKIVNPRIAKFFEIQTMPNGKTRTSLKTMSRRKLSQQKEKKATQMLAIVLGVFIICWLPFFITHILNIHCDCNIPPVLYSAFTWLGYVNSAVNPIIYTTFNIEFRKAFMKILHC
Chain of 5-HT2A receptor (P14842 whole entry): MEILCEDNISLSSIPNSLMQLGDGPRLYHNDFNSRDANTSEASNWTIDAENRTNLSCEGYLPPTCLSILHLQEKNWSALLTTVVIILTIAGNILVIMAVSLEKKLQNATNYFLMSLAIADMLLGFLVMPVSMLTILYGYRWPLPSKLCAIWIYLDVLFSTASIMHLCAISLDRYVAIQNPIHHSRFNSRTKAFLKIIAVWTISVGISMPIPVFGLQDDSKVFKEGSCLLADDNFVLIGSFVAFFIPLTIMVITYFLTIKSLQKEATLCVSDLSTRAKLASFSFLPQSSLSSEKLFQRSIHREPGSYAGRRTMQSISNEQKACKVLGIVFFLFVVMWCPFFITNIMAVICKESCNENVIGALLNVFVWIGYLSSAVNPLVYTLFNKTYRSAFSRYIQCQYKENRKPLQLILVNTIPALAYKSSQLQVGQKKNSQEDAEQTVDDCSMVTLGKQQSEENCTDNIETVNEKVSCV

| Structure (SMILES) | Ki [1, 5] | Ki ([2]; read-out: 5-HT2A Ki (95% CI)) | IC50 [3, 6] | EC50 [4, 8] | Emax [4, 9] | 5-HT1A Receptor G-Protein Stimulation Emax (%) ± SEM [4, 9] | other results |
| --- | --- | --- | --- | --- | --- | --- | --- |
| COc1ccccc1N1CCN(CCCNC(=O)C2CC3C=CC2C3)CC1 (single isomer, unassigned) [Norbo-6, endo-N-(3-(4-(2-methoxyphenyl)piperazin-1-yl)propyl)bicyclo[2.2.1]hept-5-ene-2-carboxamide] | 1.03 µM | 0.0887 µM | 59.5 µM | 3.22 µM | 131 ± 5.5% |  | IC50 [3, 7]: 60.3 µM |
| CCCN(CCC)C1CCc2cccc(O)c2C1 (stereo not shown) [Norbo 8-OH-DPAT, reference compound] |  |  |  |  |  |  | Emax [4]: 154 ± 2.3% |
| O=C(NCCCN1CCN(c2ccccc2)CC1)C1CC2C=CC1C2 (stereo not drawn) [Norbo-1, Exo-N-(3-(4-phenylpiperazin-1-yl)propyl)bicyclo[2.2.1]hept-5-ene-2-carboxamide] | 3.89 µM | 0.074 µM | 101 µM | 1.2 µM | 174 ± 4.15% |  |  |
| O=C(NCCCN1CCN(c2ccccc2)CC1)C1CC2C=CC1C2 (stereo not drawn) [Norbo-2, endo-N-(3-(4-phenylpiperazin-1-yl)propyl)bicyclo[2.2.1]hept-5-ene-2-carboxamide] | 1.61 µM | 0.0991 µM | 106 µM | 1.63 µM |  | 188 ± 4.9 % | EC50 ([4]; [35S]GTPγS, rat hippocampus homogenate, ± SEM, read-out: 5-HT1A Receptor G-Protein Stimulation pEC50 (converted)): 1.66 µM |
| Cc1cccc(N2CCN(CCCNC(=O)C3CC4C=CC3C4)CC2)c1C (stereo not drawn) [Norbo-3, Exo-N-(3-(4-(2,3-dimethylphenyl)piperazin-1-yl)propyl)bicyclo[2.2.1]hept-5-ene-2-carboxamide] | 0.25 µM | 0.0235 µM | 71 µM | 0.177 µM | 185 ± 3.2% |  |  |
| COc1ccc(N2CCN(CCCNC(=O)C3CC4C=CC3C4)CC2)cc1 (stereo not drawn) [Norbo-7, Exo-N-(3-(4-(4-methoxyphenyl)piperazin-1-yl)propyl)bicyclo[2.2.1]hept-5-ene-2-carboxamide] | 0.0513 µM | 0.105 µM | 51.5 µM | 0.348 µM | 169 ± 3.5% |  |  |
| COc1ccc(N2CCN(CCCNC(=O)C3CC4C=CC3C4)CC2)cc1 (stereo not drawn) [Norbo-8, endo-N-(3-(4-(4-methoxyphenyl)piperazin-1-yl)propyl) bicyclo[2.2.1]hept-5-ene-2-carboxamide] | 0.398 µM | 0.127 µM | 60.4 µM | 0.165 µM |  | 167 ± 2.3 % |  |
| O=C(NCCCN1CCN(c2ccccc2Cl)CC1)C1CC2C=CC1C2 (stereo not drawn) [Norbo-9, Exo-N-(3-(4-(2-chlorophenyl)piperazin-1-yl)propyl) bicyclo[2.2.1]hept-5-ene-2-carboxamide] | 2.79 µM | 0.109 µM | 20.1 µM | 0.207 µM | 149 ± 3.1% |  | IC50 [3, 7]: 20.4 µM |
| O=C(NCCCN1CCN(c2ccccc2Cl)CC1)C1CC2C=CC1C2 (stereo not drawn) [Norbo-10, endo-N-(3-(4-(2-chlorophenyl)piperazin-1-yl)propyl)bicyclo[2.2.1]hept-5-ene-2-carboxamide] | < 0.04 µM | 0.254 µM | 21.5 µM | 0.198 µM |  | 163 ± 2.4 % | Ki [1, 10]: 0.0135 µM |
| O=C(NCCCN1CCN(c2ccc(Cl)cc2)CC1)C1CC2C=CC1C2 (stereo not drawn) [Norbo-11, Exo-N-(3-(4-(4-chlorophenyl)piperazin-1-yl)propyl)bicyclo[2.2.1]hept-5-ene-2-carboxamide] | < 0.04 µM | 0.149 µM | 31.2 µM |  |  | no activity | Ki [1, 10]: 0.0309 µM; IC50 [3, 7]: 31.6 µM; 5-HT1A Receptor G-Protein Stimulation EC50 (95% CI, nM) [4, 9]: no activity; 5-HT1A Receptor G-Protein Stimulation pEC50 [4, 11]: no activity |
| O=C(NCCCN1CCN(c2ccc(Cl)cc2)CC1)C1CC2C=CC1C2 (stereo not drawn) [Norbo-12, endo-N-(3-(4-(4-chlorophenyl)piperazin-1-yl)propyl)bicyclo[2.2.1]hept-5-ene-2-carboxamide] | 34.9 µM | 0.227 µM | 100 µM | 1.87 µM | 127 ± 5.1% |  | IC50 [3, 7]: 102 µM |
| O=C(NCCCN1CCN(c2ccc(Cl)c(Cl)c2)CC1)C1CC2C=CC1C2 (stereo not drawn) [Norbo-13, Exo-N-(3-(4-(3,4-dichlorophenyl)piperazin-1-yl)propyl)bicyclo[2.2.1]hept-5-ene-2-carboxamide] | 0.122 µM | 0.0288 µM | 68.9 µM |  |  | no activity | 5-HT1A Receptor G-Protein Stimulation EC50 (95% CI, nM) [4, 9]: no activity; 5-HT1A Receptor G-Protein Stimulation pEC50 [4, 11]: no activity |
| O=C(NCCCN1CCN(c2ccccc2F)CC1)C1CC2C=CC1C2 (stereo not drawn) [Norbo-15, Exo-N-(3-(4-(2-fluorophenyl)piperazin-1-yl)propyl)bicyclo[2.2.1]hept-5-ene-2-carboxamide] | 0.031 µM | 0.0826 µM | 62.7 µM | 0.926 µM |  | 161 ± 4.5% | Ki [1, 10]: 0.0316 µM |
| O=C(NCCCN1CCN(c2ccccn2)CC1)C1CC2C=CC1C2 (stereo not drawn) [Norbo-21, Exo-N-(3-(4-(pyridin-2-yl)piperazin-1-yl)propyl)bicyclo[2.2.1]hept-5-ene-2-carboxamide] | 1.34 µM | 0.258 µM | 181 µM | 0.588 µM | 181 ± 2.5% |  |  |
| O=C(NCCCN1CCN(c2ccccn2)CC1)C1CC2C=CC1C2 (stereo not drawn) [Norbo-22, endo-N-(3-(4-(pyridin-2-yl)piperazin-1-yl)propyl)bicyclo[2.2.1]hept-5-ene-2-carboxamide] | 0.873 µM |  | 125 µM | 0.782 µM |  | 186 ± 4.4 % | Ki [2, 12]: 0.355 µM |
| O=C(NCCCN1CCN(c2ncccn2)CC1)C1CC2C=CC1C2 (stereo not drawn) [Norbo-23, Exo-N-(3-(4-(pyrimidin-2-yl)piperazin-1-yl)propyl)bicyclo[2.2.1]hept-5-ene-2-carboxamide] | 0.353 µM | 1.08 µM | 255 µM | 2.4 µM | 181 ± 4.1% |  |  |
| O=C(NCCCN1CCN(c2ncccn2)CC1)C1CC2C=CC1C2 (stereo not drawn) [Norbo-24, endo-N-(3-(4-(pyrimidin-2-yl)piperazin-1-yl)propyl)bicyclo[2.2.1]hept-5-ene-2-carboxamide] | 0.211 µM |  | 206 µM | 1.72 µM |  | 177 ± 6.1 % | Ki [1, 10]: 0.214 µM; Ki [2, 12]: 1.38 µM |
| O=C(NCCCN1CCN(Cc2ccc3c(c2)OCO3)CC1)C1CC2C=CC1C2 (stereo not drawn) [Norbo-25, Exo-N-(3-(4-(benzo[d][1,3]dioxol-5-ylmethyl)piperazin-1-yl)propyl)bicyclo[2.2.1]hept-5-ene-2-carboxamide] | 1.05 µM |  |  | 1.91 µM | 184 ± 6.4% |  | Ki [2, 12]: 0.372 µM; D2 receptor antagonistic activity IC50 (95% CI, µM) [3]: no activity; D2 receptor antagonistic activity pIC50 (M ± SEM) [3]: no activity |
| O=C(NCCCN1CCN(Cc2ccc3c(c2)OCO3)CC1)C1CC2C=CC1C2 (stereo not drawn) [Norbo-26, endo-N-(3-(4-(benzo[d][1,3]dioxol-5-ylmethyl)piperazin-1-yl)propyl)bicyclo[2.2.1]hept-5-ene-2-carboxamide] |  | 0.584 µM |  | 7.5 µM |  | 178 ± 22.6 % | Ki [1, 10]: 2.29 µM; D2 receptor antagonistic activity IC50 (95% CI, µM) [3]: no activity; D2 receptor antagonistic activity pIC50 (M ± SEM) [3]: no activity |
| COc1cc(OC)c(C(=O)CCCCN2CCC3(CC2)NC(=O)NC3=O)cc1NS(=O)(=O)c1ccc(C(F)(F)F)cc1 [RS102221, reference compound] |  |  |  |  |  |  | 5-HT2C pKi [1]: 8.25 ± 0.21; Ki ([1]; read-out: 5-HT2C Ki (95% CI)): 0.00556 µM |
